Where two headings read alike, the source gives them in different places.
What was measured:
[1] = tested on: writhing syndrome induced by acetic acid in mice; test: Test 2: writhing syndrome induced by acetic acid in mice (analgesic activity); assay type: in vivo, male ddY mice; settings: Mus musculus
Experimental: Writhing syndrome induced by acetic acid in mice Ten male ddY mice were used per group. Writhing syndrome was produced by an intraperitoneal injection of 20 ml/kg of 0.6% acetic acid in mice. The animals were observed from 3 to 13 minutes after acetic acid injection, and a total number of writhing episodes was recorded. The drugs were given orally 1 hour before acetic acid injection. The frequency of writhing in the treated animals was compared with that in the control animals.

[2] = tested on: pyrexia induced by brewer's yeast in rats; test: Test 3: anti-pyretic activity, brewer's yeast-induced pyrexia in rats; assay type: in vivo, male Sprague-Dawley rats; settings: Rattus norvegicus, oral
Experimental: Anti-pyretic activity Ten male Sprague-Dawley rats were used per group. Pyrexia was induced by SC injection of 10 ml/kg of 5% brewer's yeast suspension. The drugs were given orally […] after yeast injection. Rectal temperature was measured 1 and 2 hours after administration of drugs, and the difference of rectal temperature from that before yeast injection was calculated.

[3] = tested on: inflammatory hyperalgesia induced by brewer's yeast in rats; test: Test 5: inflammatory hyperalgesia induced by brewer's yeast in rats (analgesic activity); assay type: in vivo, male Sprague Dawley rats
Experimental: Inflammatory hyperalgesia induced by brewer's yeast in rats
Ten male Sprague Dawley rats were used per group. 0.1 Ml of 5% brewer's yeast suspended in 0.5% methylcellulose was injected into the right hind paw, The pain threshold was determined 3 hours after yeast injection, by applying pressure to the foot and reading the pressure at which the rat withdrew the foot.
The drugs were given orally 2 hours after yeast infection. The pain threshold in the treated animals was compared with that in the control animals.

[4] = oral, 1 hour before acetic acid injection, number of writhing episodes 3 to 13 minutes after, read-out: ED50
[5] = rectal temperature 1 hour after administration, read-out: ED50 (1 hr)
[6] = rectal temperature 2 hours after administration, read-out: ED50 (2 hr)

Molecule `CC(=O)c1ccc(NS(C)(=O)=O)c(Oc2ccc(F)cc2F)c1` [Example 1, 4'-acetyl-2'-(2,4-difluorophenoxy)methanesulfonanilide] has an ED50 [1, 4] of 14 mg/kg, an ED50 [2, 5] of 10 mg/kg and an ED50 [2, 6] of 6.8 mg/kg.
`CS(=O)(=O)Nc1ccc(C#N)cc1Oc1ccc(F)cc1F` [Example 3, 4'-Cyano-2'-(2,4-difluorophenoxy)methanesulfonanilide] was tested, and the ED50 [1, 4] was 2.4 mg/kg.
`Cc1cc(NS(C)(=O)=O)c(Oc2ccc(F)cc2F)cc1C#N` [Example 20, 4'-Cyano-2'-(2,4-difluorophenoxy)-5'-methylmethanesulfonanilide] showed an ED50 [1, 4] of 55.8 mg/kg.
With `CC(=O)c1ccc(NS(C)(=O)=O)c(Oc2ccc(F)cc2Cl)c1` [Example 25, 4'-Acetyl-2'-(2-chloro-4-fluorophenoxy)methanesulfonanilide] the ED50 [1, 4] was 9.6 mg/kg.
`CC(=NNC(N)=O)c1ccc(NS(C)(=O)=O)c(Oc2ccc(F)cc2F)c1` [Example 40, 3'-(2,4-difluorophenoxy)-4'-methanesulfonamidoacetophenone semicarbazone] gave an ED50 [1, 4] of 18 mg/kg.
With `CS(=O)(=O)Nc1ccc(C#N)cc1Oc1ccc(F)cc1F.[Na]` [Example 73, 4'-cyano-2'-(2,4-difluorophenoxy)methanesulfonanilide sodium salt] the ED30 ([3]; po) was 1.8 mg/kg.
`COc1ccc2c(c1)c(CC(=O)O)c(C)n2C(=O)c1ccc(Cl)cc1` [Indomethacin, reference compound] gave an ED50 ([1]; po) of 1.6 mg/kg, an ED30 ([3]; oral, 2 hours after yeast injection, pain threshold 3 hours after yeast injection, read-out: ED30) of 5.1 mg/kg and an ED50 [2, 5] of 4.6 mg/kg. It also gave an ED50 [2, 6] of 2.6 mg/kg.

From patent publication US4866091A, “Alkanesulfonanilide derivatives, processes for preparation thereof and pharmaceutical composition comprising the same” (Fujisawa Pharmaceutical Co., Ltd., priority 1986, dated 1989)
